Laboratory results published in patent US20030232994A1, “Bicyclic thiophene derivatives and combinatorial libraries thereof” (priority 2001, published 2003).

Test system: Streptococcus pyogenes (ATCC# 97-03 14289)
Assay: Anti-microbial screen (growth inhibition, OD 570 nm)
Format: cell-based
Settings: growth in Todd Hewitt Broth, plates read at 570 nm at 0 time and 4 hours, color corrected
Method: Streptococcus pyogenes (ATCC# 97-03 14289) was grown in Todd Hewitt Broth (THB) (Difco Laboratories #0492-17-6) overnight until reaching an optical density of (OD=0.636 @ 570 nm) by reading 0.1 ml in a 96 well microtiter plate in a Molecular Devices Thermomax. This preparation was kept frozen as stocks in 30% v/v glycerol in 1.5 ml aliquots at −70^mC. until use. Prior to experiments, […] aliquots were thawed and diluted into 50 ml 2×THB. 60 ul of this dilution was added to 92 wells of microtiter plate. To three wells THB (200 ul) was added to serve as a blank and a sterility control. Test compounds in DMSO and appropriate concentrations of DMSO were added to Growth/Solvent Controls at 0 time. Plates were read at 0 time at 570 nm in the Molecular Devices plate reader to obtain compounds correction factors for insoluble or colored compounds. Plates were read again at 4 hours.
Percent inhibition is calculated with the following formulae: [drawing 4]
Color correct=O.D. 0 hr−Blank 0 hr)−(Solvent Control 0 hr−Blank 0 hr)
% Inhibition=100−O.D. test compound 4 hr−Blank 4 hr−color correct O.D. growth/solvent control 4 hr−Blank 4 hr

Going from `Cc1ccsc1C(=O)N1CCc2c(sc(NC(=O)c3ccc(Cl)cc3)c2C(=O)O)C1` to `CCc1ccc(C(=O)Nc2sc3c(c2C(=O)O)CCN(C(=O)c2sccc2C)C3)cc1`, the “% Inhibition” value falls from 62.02% to 60.88%.

Going from `CCCc1ccc(C(=O)Nc2sc3c(c2C(=O)O)CCN(C(=O)C(C)C)C3)cc1` to `CCCc1ccc(C(=O)Nc2sc3c(c2C(=O)O)CCN(C(=O)c2ccc(C)cc2C)C3)cc1`, the “% Inhibition” value falls from 74.78% to 61.2%.

Going from `COc1cccc(C(=O)Nc2sc3c(c2C(=O)O)CCN(C(=O)Cc2cc(C)ccc2C)C3)c1` to `Cc1ccc(C)c(CC(=O)N2CCc3c(sc(NC(=O)c4ccccc4)c3C(=O)O)C2)c1`, the “% Inhibition” value rises from 62.32% to 86.14%.

Compared with `CCCc1ccc(C(=O)Nc2sc3c(c2C(=O)O)CCN(C(=O)c2cccc(F)c2C)C3)cc1`, `Cc1c(F)cccc1C(=O)N1CCc2c(sc(NC(=O)c3ccc(Cl)cc3)c2C(=O)O)C1` is lower in “% Inhibition” value: 99.63% for the first, 78.42% for the second.

Going from `Cc1ccccc1C(=O)N1CCc2c(sc(NC(=O)CCC3CCCC3)c2C(=O)O)C1` to `O=C(CCC1CCCC1)Nc1sc2c(c1C(=O)O)CCN(C(=O)c1cccc3ccccc13)C2`, the “% Inhibition” value rises from 76.07% to 82.49%.

Going from `CCCc1ccc(C(=O)Nc2sc3c(c2C(=O)O)CCN(C(=O)c2cccnc2SC)C3)cc1` to `CCc1ccc(C(=O)Nc2sc3c(c2C(=O)O)CCN(C(=O)c2cccnc2SC)C3)cc1`, the “% Inhibition” value falls from 86.05% to 63.83%.

First: O=C(Nc1sc2c(c1C(=O)O)CCN(C(=O)c1cc3ccccc3s1)C2)c1ccco1
Second: Cc1ccccc1C(=O)N1CCc2c(sc(NC(=O)c3ccco3)c2C(=O)O)C1
The “% Inhibition” value of the first is higher: 96.65% for the first, 90.41% for the second.

Going from `O=C(Nc1sc2c(c1C(=O)O)CCN(C(=O)c1ccc(Cl)cc1)C2)c1ccccc1Cl` to `O=C(Nc1sc2c(c1C(=O)O)CCN(C(=O)c1ccccc1Cl)C2)c1ccc(Cl)cc1`, the “% Inhibition” value falls from 72.75% to 62.91%.

Compared with `CCc1ccc(C(=O)Nc2sc3c(c2C(=O)O)CCN(C(=O)c2ccccc2Cl)C3)cc1`, `CCc1ccc(C(=O)Nc2sc3c(c2C(=O)O)CCN(C(=O)c2ccccc2SC)C3)cc1` is higher in “% Inhibition” value: 77.92% for the first, 86.44% for the second.

Compared with `CCC(C(=O)Nc1sc2c(c1C(=O)O)CCN(C(=O)c1ccccc1SC)C2)c1ccccc1` (centres unmarked), `CCCSc1ncccc1C(=O)N1CCc2c(sc(NC(=O)c3ccccc3)c2C(=O)O)C1` is higher in “% Inhibition” value: 68.58% for the first, 86.6% for the second.

Going from `CC(C)(C)c1ccc(C(=O)Nc2sc3c(c2C(=O)O)CCN(C(=O)c2ccc(Cl)cc2)C3)cc1` to `CC(C)(C)c1ccc(C(=O)Nc2sc3c(c2C(=O)O)CCN(C(=O)c2ccc(F)c(F)c2)C3)cc1`, the “% Inhibition” value rises from 68.41% to 75.95%.

Going from `CC(C)(C)c1ccc(C(=O)Nc2sc3c(c2C(=O)O)CCN(C(=O)CCc2ccc(F)c(F)c2)C3)cc1` to `CC(C)(C)c1ccc(C(=O)Nc2sc3c(c2C(=O)O)CCN(C(=O)c2ccc(F)cc2F)C3)cc1`, the “% Inhibition” value rises from 69.4% to 86.77%.

Going from `Cc1ccc(C(=O)N2CCc3c(sc(NC(=O)c4ccc(Cl)cc4)c3C(=O)O)C2)cn1` to `CCc1ccc(C(=O)Nc2sc3c(c2C(=O)O)CCN(C(=O)c2ccc(Cl)cc2)C3)cc1`, the “% Inhibition” value rises from 64.41% to 74.97%.

First: COc1ccccc1C(=O)Nc1sc2c(c1C(=O)O)CCN(C(=O)c1cccc(F)c1C)C2
Second: CCCSc1ncccc1C(=O)N1CCc2c(sc(NC(=O)c3ccccc3OC)c2C(=O)O)C1
The “% Inhibition” value of the first is higher: 63.41% for the first, 61.59% for the second.

Compared with `O=C(CCC1CCCC1)Nc1sc2c(c1C(=O)O)CCN(C(=O)c1ccc(F)c(F)c1)C2`, `O=C(Nc1sc2c(c1C(=O)O)CCN(C(=O)c1ccc(F)c(F)c1)C2)c1ccccc1Cl` is lower in “% Inhibition” value: 61.45% for the first, 61.26% for the second.

Going from `CCc1ccc(C(=O)Nc2sc3c(c2C(=O)O)CCN(C(=O)c2cccc4ccccc24)C3)cc1` to `COc1cccc(C(=O)Nc2sc3c(c2C(=O)O)CCN(C(=O)c2cccc4ccccc24)C3)c1`, the “% Inhibition” value rises from 67.43% to 82.32%.

Compared with `Cc1ccsc1C(=O)N1CCc2c(sc(NC(=O)c3ccccc3)c2C(=O)O)C1`, `Cc1ccsc1C(=O)N1CCc2c(sc(NC(=O)c3ccc(C(C)(C)C)cc3)c2C(=O)O)C1` is lower in “% Inhibition” value: 93.13% for the first, 68.74% for the second.

Going from `O=C(Nc1sc2c(c1C(=O)O)CCN(C(=O)c1ccc(F)cc1F)C2)c1ccccc1Cl` to `CSc1ncccc1C(=O)N1CCc2c(sc(NC(=O)c3ccccc3Cl)c2C(=O)O)C1`, the “% Inhibition” value falls from 64.7% to 60.53%.

Compared with `CC(CC(=O)Nc1sc2c(c1C(=O)O)CCN(C(=O)c1ccc(Cl)cc1)C2)CC(C)(C)C` (centres unmarked), `Cc1ccc(C(=O)N2CCc3c(sc(NC(=O)CC(C)CC(C)(C)C)c3C(=O)O)C2)c(C)c1` (centres unmarked) is higher in “% Inhibition” value: 63.48% for the first, 81.9% for the second.

First: CCCc1ccc(C(=O)Nc2sc3c(c2C(=O)O)CCN(C(=O)c2ccc(F)cc2F)C3)cc1
Second: CCCc1ccc(C(=O)Nc2sc3c(c2C(=O)O)CCN(C(=O)c2ccc(F)c(F)c2)C3)cc1
The “% Inhibition” value of the first is higher: 88.03% for the first, 86.71% for the second.

Compared with `Cc1ccccc1C(=O)N1CCc2c(sc(NC(=O)c3ccc4ccccc4c3)c2C(=O)O)C1`, `O=C(Nc1sc2c(c1C(=O)O)CCN(C(=O)c1ccccc1Cl)C2)c1ccc2ccccc2c1` is lower in “% Inhibition” value: 78.88% for the first, 63.6% for the second.

Compared with `O=C(Nc1sc2c(c1C(=O)O)CCN(C(=O)c1ccoc1)C2)c1ccccc1`, `COc1cc(Cl)ccc1C(=O)N1CCc2c(sc(NC(=O)c3ccccc3)c2C(=O)O)C1` is lower in “% Inhibition” value: 94.53% for the first, 81.48% for the second.

Going from `O=C(Nc1sc2c(c1C(=O)O)CCN(C(=O)c1cccc(Cl)c1)C2)c1c(F)cccc1F` to `O=C(Nc1sc2c(c1C(=O)O)CCN(C(=O)c1ccc(C(F)(F)F)cc1)C2)c1c(F)cccc1F`, the “% Inhibition” value falls from 77.03% to 59.67%.

First: CC(C)(C)c1ccc(C(=O)Nc2sc3c(c2C(=O)O)CCN(C(=O)c2ccccc2Cl)C3)cc1
Second: Cc1ccc(C(=O)N2CCc3c(sc(NC(=O)c4ccc(C(C)(C)C)cc4)c3C(=O)O)C2)c(C)c1
The “% Inhibition” value of the first is higher: 89.72% for the first, 82.83% for the second.

Compared with `O=C(Nc1sc2c(c1C(=O)O)CCN(C(=O)c1ccc(C(F)(F)F)cc1)C2)c1ccccc1Cl`, `CCc1ccc(C(=O)Nc2sc3c(c2C(=O)O)CCN(C(=O)c2ccc(C(F)(F)F)cc2)C3)cc1` is lower in “% Inhibition” value: 64.41% for the first, 63.17% for the second.

Going from `CCCc1ccc(C(=O)Nc2sc3c(c2C(=O)O)CCN(C(=O)c2cc(OC)ccc2OC)C3)cc1` to `CCCc1ccc(C(=O)Nc2sc3c(c2C(=O)O)CCN(C(=O)c2ccc(Cl)cc2OC)C3)cc1`, the “% Inhibition” value rises from 60.54% to 67.49%.

Compared with `COc1cccc(C(=O)Nc2sc3c(c2C(=O)O)CCN(C(=O)c2ccc(Cl)cc2)C3)c1`, `O=C(Nc1sc2c(c1C(=O)O)CCN(C(=O)c1ccc(Cl)cc1)C2)c1ccc2ccccc2c1` is lower in “% Inhibition” value: 90.32% for the first, 76.7% for the second.

Going from `COc1ccccc1C(=O)Nc1sc2c(c1C(=O)O)CCN(C(=O)CCc1ccc(F)c(F)c1)C2` to `COc1ccccc1C(=O)Nc1sc2c(c1C(=O)O)CCN(C(=O)Cc1cc(C)ccc1C)C2`, the “% Inhibition” value rises from 60.86% to 61.95%.

Compared with `COc1cccc(C(=O)N2CCc3c(sc(NC(=O)c4ccc(Cl)cc4)c3C(=O)O)C2)c1OC`, `CCCc1ccc(C(=O)Nc2sc3c(c2C(=O)O)CCN(C(=O)c2ccc(Cl)cc2)C3)cc1` is lower in “% Inhibition” value: 77.82% for the first, 64.18% for the second.

Going from `Cc1ccccc1C(=O)N1CCc2c(sc(NC(=O)C3CCCCC3)c2C(=O)O)C1` to `O=C(O)c1c(NC(=O)C2CCCCC2)sc2c1CCN(C(=O)c1cc3ccccc3s1)C2`, the “% Inhibition” value rises from 69.29% to 72.52%.

Compared with `O=C(Nc1sc2c(c1C(=O)O)CCN(C(=O)c1ccc(F)c(F)c1)C2)c1ccc2ccccc2c1`, `CCCSc1ncccc1C(=O)N1CCc2c(sc(NC(=O)c3ccc4ccccc4c3)c2C(=O)O)C1` is lower in “% Inhibition” value: 87.61% for the first, 67.03% for the second.

Compared with `COc1cccc(C(=O)N2CCc3c(sc(NC(=O)[C@]45C[C@H]6C[C@@H](C[C@H](C6)C4)C5)c3C(=O)O)C2)c1OC`, `O=C(O)c1c(NC(=O)[C@]23C[C@H]4C[C@@H](C[C@H](C4)C2)C3)sc2c1CCN(C(=O)c1ccccc1C(F)(F)F)C2` is lower in “% Inhibition” value: 68.91% for the first, 64.79% for the second.

Compared with `COc1cccc(C(=O)Nc2sc3c(c2C(=O)O)CCN(C(=O)c2ccccc2C)C3)c1`, `CCOc1ncccc1C(=O)N1CCc2c(sc(NC(=O)c3ccccc3)c2C(=O)O)C1` is higher in “% Inhibition” value: 74.32% for the first, 95.92% for the second.

First: CC(C)(C)c1ccc(C(=O)Nc2sc3c(c2C(=O)O)CCN(C(=O)C2CCCCC2)C3)cc1
Second: CCc1ccc(C(=O)Nc2sc3c(c2C(=O)O)CCN(C(=O)C2CCCCC2)C3)cc1
The “% Inhibition” value of the first is lower: 59.89% for the first, 63.5% for the second.

Going from `CSc1ccccc1C(=O)N1CCc2c(sc(NC(=O)CC(C)CC(C)(C)C)c2C(=O)O)C1` (centres unmarked) to `CC(C)CC(=O)N1CCc2c(sc(NC(=O)c3ccccc3Cl)c2C(=O)O)C1`, the “% Inhibition” value falls from 95.62% to 59.63%.

Compared with `CCCSc1ncccc1C(=O)N1CCc2c(sc(NC(=O)c3ccc(CC)cc3)c2C(=O)O)C1`, `CCCc1ccc(C(=O)Nc2sc3c(c2C(=O)O)CCN(C(=O)c2ccccc2C(F)(F)F)C3)cc1` is lower in “% Inhibition” value: 92.01% for the first, 64.51% for the second.

Compared with `CC(C)CC(=O)N1CCc2c(sc(NC(=O)c3ccc4ccccc4c3)c2C(=O)O)C1`, `CC(C)CC(=O)N1CCc2c(sc(NC(=O)c3ccc(Cl)cc3)c2C(=O)O)C1` is higher in “% Inhibition” value: 77.94% for the first, 84.68% for the second.

Going from `CCCCOc1ccc(C(=O)Nc2sc3c(c2C(=O)O)CCN(C(=O)c2cc4ccccc4s2)C3)cc1` to `O=C(Nc1sc2c(c1C(=O)O)CCN(C(=O)c1ccsc1)C2)c1ccco1`, the “% Inhibition” value falls from 89.4% to 66.72%.

With `CC(CC(=O)Nc1sc2c(c1C(=O)O)CCN(C(=O)CC1CCCC1)C2)CC(C)(C)C` (centres unmarked) the “% Inhibition” value was 81.9%.
